Laboratory results reported in patent US6706740B2, “Fungicidal heterocyclic aromatic amides and their compositions, methods of use and preparation” (Dow AgroSciences LLC, priority 1999, dated 2004).
Like-named read-outs stand apart in the source and are kept apart here.

Columns and labels:
[1] = test system: Magnaporthe grisea (Pyricularia oryzae—PYRIOR); assay: microbe, parasite or virus in culture; format: cell-based; conditions: Pyricularia oryzae, read-out: PYRIOR in vitro Growth Inhibition
[2] = test system: Phytophthora infestans—PHYTIN; assay: whole plant or invertebrate; format: in vivo; conditions: Phytophthora, in Solanum lycopersicum, 24 h, read-out: PHYTIN in vivo 1 Day Protectant
[3] = test system: Phytophthora infestans (PHYTIN); assay: microbe, parasite or virus in culture; format: cell-based; conditions: Phytophthora infestans, read-out: PHYTIN in vitro Growth Inhibition
[4] = test system: Puccinia recondita—PUCCRT; assay: Brown Rust of Wheat, in vivo whole plant, 24 Hour Protectant; conditions: Puccinia, control of fungal infection vs untreated plants, read-out: PUCCRT in vivo 1 Day Protectant
Erysiphe graminis—ERYSGT = assay: Powdery Mildew of Wheat, in vivo whole plant, 24 Hour Protectant; conditions: Erysiphe, control of fungal infection vs untreated plants, read-out: ERYSGT in vivo 1 Day Protectant
[5] = test system: Leptosphaeria nodorum—LEPTNO; assay: Glume Blotch of Wheat, in vivo whole plant, 24 Hour Protectant; conditions: Leptosphaeria, control of fungal infection vs untreated plants, read-out: LEPTNO in vivo 1 Day Protectant
[6] = test system: Mycosphaerella graminicola (Septoria tritici—SEPTTR); assay: In vitro fungal growth inhibition, Mycosphaerella graminicola (SEPTTR); format: cell-based; conditions: Zymoseptoria tritici, read-out: SEPTTR in vitro Growth Inhibition
[7] = test system: Stagonospora nodorum (Leptosphaeria nodorum—LEPTNO); assay: In vitro fungal growth inhibition, Stagonospora nodorum (LEPTNO); format: cell-based; conditions: Leptosphaeria, read-out: LEPTNO in vitro Growth Inhibition
Septoria tritici—SEPTTR = assay: Leaf Blotch of Wheat, in vivo whole plant, 24 Hour Protectant; conditions: Zymoseptoria tritici, 24 h, control of fungal infection vs untreated plants, read-out: SEPTTR in vivo 1 Day Protectant
[8] = test system: Rhizoctonia solani (RHIZSO); assay: microbe, parasite or virus in culture; format: cell-based; conditions: Rhizoctonia solani, read-out: RHIZSO in vitro Growth Inhibition
Ustilago maydis (USTIMA) = assay: microbe, parasite or virus in culture; format: cell-based; conditions: Mycosarcoma maydis, read-out: USTIMA in vitro Growth Inhibition
[9] = wheat plants sprayed at 100 ppm, inoculated after 24 hours
[10] = 100 ppm spray, 24 hour protectant, wheat

Row | SMILES | inhibition at 25 ppm [1] | pest or weed control at 100 ppm [2] | melting point | inhibition at 25 ppm [3] | pest or weed control at 100 ppm [4, 9] | pest or weed control at 100 ppm (Erysiphe graminis—ERYSGT; [9]) | pest or weed control at 100 ppm [5, 9] | inhibition at 25 ppm ([6]; 25 ppm in the growth medium) | inhibition at 25 ppm ([7]; 25 ppm in the growth medium) | pest or weed control at 100 ppm (Septoria tritici—SEPTTR; [9]) | inhibition at 25 ppm [8] | inhibition at 25 ppm (Ustilago maydis (USTIMA)) | pest or weed control at 100 ppm [4, 10] | pest or weed control at 100 ppm (Erysiphe graminis—ERYSGT; [10]) | pest or weed control at 100 ppm [5, 10] | inhibition at 25 ppm ([6]; 25 ppm in growth medium) | inhibition at 25 ppm ([7]; 25 ppm in growth medium) | pest or weed control at 100 ppm (Septoria tritici—SEPTTR; [10])
1 | Cn1cc(C(=O)NC2CC(C)(C)CC(C)(C)C2)c(O)n1 [Compound 557] | < 80% | < 25% | 205 to 208 °C | > 80% | 25 to 74% | < 25% | 25 to 74% | < 80% | < 80% | 25 to 74% | < 80% | < 80% |  |  |  |  |  | 
2 | Cc1ccc(C(=O)NC2CC(C)(C)CC(C)(C)C2)c(O)n1 [Compound 524] | < 80% | < 25% | 307 to 308 °C | < 80% | < 25% | < 25% | < 25% | < 80% | < 80% | 25 to 74% | < 80% | < 80% |  |  |  |  |  | 
3 | COc1ccnc(C(=O)NC2CC(C)(C)C(OC(=O)c3ccccc3)C(C)(C)C2)c1O (stereo not drawn) [Compound 268] | < 80% | < 25% | 175 to 200 °C | > 80% |  |  |  |  |  |  | < 80% | < 80% | 25 to 74% | < 25% | 25 to 74% | < 80% | > 80% | 25 to 74%
4 | COc1ccnc(C(=O)N[C@@H]2CCCC[C@H]2SC)c1O [Compound 273] | < 80% | < 25% | 113 to 115 °C | < 80% |  |  |  |  |  |  | < 80% | < 80% | < 25% | < 25% | 25 to 74% | < 80% | < 80% | 25 to 74%
5 | COc1ccnc(C(=O)Nc2ccc(Oc3cc(C(F)(F)F)cc(C(F)(F)F)n3)cc2)c1O [Compound 464] | < 80% | < 25% | 179 to 181 °C | < 80% | < 25% | < 25% | 25 to 74% | < 80% | < 80% | 25 to 74% | < 80% | < 80% |  |  |  |  |  | 
6 | COc1ccnc(C(=O)NC2CC3OC2C(C)C(OC(=O)C(C)C)C3C)c1O (stereo not drawn) [Compound 320] | < 80% | < 25% | 108.5 to 109.5 °C | < 80% |  |  |  |  |  |  | < 80% | < 80% | < 25% | < 25% | 25 to 74% | < 80% | < 80% | 25 to 74%
7 | O=C(NCc1ccc(Cl)c(Cl)c1)c1ncccc1O [Compound 221] | > 80% | < 25% | 100 to 101 °C | > 80% |  |  |  |  |  |  | < 80% | < 80% | < 25% | < 25% | < 25% | > 80% | < 80% | < 25%
